Results as given in patent publication US20260028326A1, “COMPOUND BASED ON ISOINDOLINE-SUBSTITUTED GLUTARIMIDE BACKBONE AND USE THEREOF” (GLUETACS THERAPEUTICS (SHANGHAI) CO., LTD., priority 2022, published 2026).

Molecular target: human Cereblon WT GST-tagged protein (Homo sapiens (Human), UniProt Q96SW2)
Assay: CRBN-binding affinity, HTRF (CEREBLON BINDING kit)
In short: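 HTRF competition readout: compounds compete with a thalidomide-Re conjugate for GST-tagged wild-type human CRBN detected via Eu-labelled anti-GST antibody. Inhibition rate derived relative to protein-free blank wells.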

human Cereblon WT GST-tagged protein, sequence (Q96SW2 whole entry): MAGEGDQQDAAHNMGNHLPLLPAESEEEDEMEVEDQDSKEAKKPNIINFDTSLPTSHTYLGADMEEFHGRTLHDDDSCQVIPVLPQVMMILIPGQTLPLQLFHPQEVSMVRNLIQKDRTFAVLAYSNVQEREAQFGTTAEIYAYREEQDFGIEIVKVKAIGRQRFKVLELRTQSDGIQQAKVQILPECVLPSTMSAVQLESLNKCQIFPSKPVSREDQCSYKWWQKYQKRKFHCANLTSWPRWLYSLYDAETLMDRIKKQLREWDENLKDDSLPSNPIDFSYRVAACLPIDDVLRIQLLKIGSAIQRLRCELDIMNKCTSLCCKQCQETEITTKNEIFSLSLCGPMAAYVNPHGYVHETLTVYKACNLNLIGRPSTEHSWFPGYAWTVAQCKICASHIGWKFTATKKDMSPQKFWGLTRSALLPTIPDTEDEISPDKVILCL

Structure (SMILES)	IC50
CC1(C)CCC(CN2CCN(Cc3ccc4c(c3)C(=O)N(C3CCC(=O)NC3=O)C4)CC2)=C(c2ccc(F)cc2)C1 (stereo not drawn) [GT-05394, 3-(6-((4-((4′-fluoro-5,5-dimethyl-3,4,5,6-tetrahydro-[1,1′-biphenyl]-2-yl)methyl)piperazin-1-yl)methyl)-1-oxoisoindolin-2-yl)piperidine-2,6-dione]	490 nM
CC1(C)CCC(CN2C3CCC2CN(c2ccc4c(c2)CN(C2CCC(=O)NC2=O)C4=O)C3)=C(c2ccc(F)cc2)C1 (stereo not drawn) [GT-05500, 3-(5-(8-((4′-fluoro-5,5-dimethyl-3,4,5,6-tetrahydro-[1,1′-biphenyl]-2-yl)methyl)-3,8-diazabicyclo[3.2.1]octan-3-yl)-1-oxoisoindolin-2-yl)piperidine-2,6-dione]	1870 nM
CC1(C)CCC(CN2CC3CCC2CN3c2ccc3c(c2)C(=O)N(C2CCC(=O)NC2=O)C3=O)=C(c2ccc(Cl)cc2)C1 (stereo not drawn) [GT-05379, 5-(5-((4′-chloro-5,5-dimethyl-3,4,5,6-tetrahydro-[1,1′-biphenyl]-2-yl)methyl)-2,5-diazabicyclo[2.2.2]octan-2-yl)-2-(2,6-dioxopiperidin-3-yl)isoindoline-1,3-dione]	110 nM
O=C1CCC(N2Cc3cc(CN4C5CC4CN(C(=O)c4ccccc4-c4ccc(Cl)cc4)C5)cc(F)c3C2=O)C(=O)N1 (stereo not drawn) [GT-05668, 3-(5-((3-(4′-chloro-[1,1′-biphenyl]-2-carbonyl)-3,6-diazabicyclo[3.1.1]heptan-6-yl)methyl)-7-fluoro-1-oxoisoindolin-2-yl)piperidine-2,6-dione]	650 nM
CC1(C)CCC(C(=O)N2CCC(Nc3ccc4c(c3)CN(C3CCC(=O)NC3=O)C4=O)CC2)=C(c2ccc(Cl)cc2)C1 (stereo not drawn) [GT-05783, 3-(5-((1-(4′-chloro-5,5-dimethyl-3,4,5,6-tetrahydro-[1,1′-biphenyl]-2-carbonyl)piperidin-4-yl)amino)-1-oxoisoindolin-2-yl)piperidine-2,6-dione]	940 nM
O=C1CCC(N2Cc3c(CN4CCN(CC5=C(c6ccc(F)cc6)CCCC5)CC4)cccc3C2=O)C(=O)N1 (stereo not drawn) [GT-05861, 3-(4-((4-((4′-fluoro-3,4,5,6-tetrahydro-[1,1′-biphenyl]-2-yl)methyl)piperazin-1-yl)methyl)-1-oxoisoindolin-2-yl)piperidine-2,6-dione]	1290 nM
CC1(C)CCC(C(=O)N2C3CC2CN(Cc2ccc4c(c2)CN(C2CCC(=O)NC2=O)C4=O)C3)=C(c2ccc(Cl)cc2)C1 (stereo not drawn) [GT-05660, 3-(5-((6-(4′-chloro-5,5-dimethyl-3,4,5,6-tetrahydro-[1,1′-biphenyl]-2-carbonyl)-3,6-diazabicyclo[3.1.1]heptan-3-yl)methyl)-1-oxoisoindolin-2-yl)piperidine-2,6-dione]	1040 nM
CC1(C)CCC(CN2CCN(CCCc3ccc4c(c3)CN(C3CCC(=O)NC3=O)C4=O)CC2)=C(c2ccc(Cl)cc2)C1 (stereo not drawn) [GT-05362, 3-(5-(3-(4-((4′-chloro-5,5-dimethyl-3,4,5,6-tetrahydro-[1,1′-biphenyl]-2-yl)methyl)piperazin-1-yl)propyl)-1-oxoisoindolin-2-yl)piperidine-2,6-dione]	1260 nM
CC1(C)CCC(CN2CC(=Cc3ccc4c(c3)CN(C3CCC(=O)NC3=O)C4=O)C2)=C(c2ccc(F)cc2)C1 (stereo not drawn) [GT-05483, 3-(5-((1-((4′-fluoro-5,5-dimethyl-3,4,5,6-tetrahydro-[1,1′-biphenyl]-2-yl)methyl)azetidin-3-ylidene)methyl)-1-oxoisoindolin-2-yl)piperidine-2,6-dione]	510 nM
O=C1CCC(N2Cc3cc(CN4CCN(C(=O)C5=C(c6ccc(F)cc6)CCCC5)CC4)cc(F)c3C2=O)C(=O)N1 (stereo not drawn) [GT-05474, 3-(7-fluoro-5-((4-(4′-fluoro-3,4,5,6-tetrahydro-[1,1′-biphenyl]-2-carbonyl)piperazin-1-yl)methyl)-1-oxoisoindolin-2-yl)piperidine-2,6-dione]	1170 nM
CC1(C)CCC(CN2C3CC2CN(c2ccc4c(c2)C(=O)N(C2CCC(=O)NC2=O)C4=O)C3)=C(c2ccc(Cl)cc2)C1 (stereo not drawn) [GT-05378, 5-(6-((4′-chloro-5,5-dimethyl-3,4,5,6-tetrahydro-[1,1′-biphenyl]-2-yl)methyl)-3,6-diazabicyclo[3.1.1]heptan-3-yl)-2-(2,6-dioxopiperidin-3-yl)isoindoline-1,3-dione]	1770 nM
CC1(C)CCC(CN2CC3CC2CN3C(=O)c2ccc3c(c2)CN(C2CCC(=O)NC2=O)C3=O)=C(c2ccc(Cl)cc2)C1 (stereo not drawn) [GT-05541, 3-(5-(5-((4′-chloro-5,5-dimethyl-3,4,5,6-tetrahydro-[1,1′-biphenyl]-2-yl)methyl)-2,5-diazabicyclo[2.2.1]heptane-2-carbonyl)-1-oxoisoindolin-2-yl)piperidine-2,6-dione]	600 nM
CC1(C)CCC(CN2CC3CCC(C2)N3Cc2ccc3c(c2)CN(C2CCC(=O)NC2=O)C3=O)=C(c2ccc(Cl)cc2)C1 (stereo not drawn) [GT-03889, 3-(5-((3-((4′-chloro-5,5-dimethyl-3,4,5,6-tetrahydro-[1,1′-biphenyl]-2-yl)methyl)-3,8-diazabicyclo[3.2.1]octan-8-yl)methyl)-1-oxoisoindolin-2-yl)piperidine-2,6-dione]	710 nM
CC1(C)CCC(C(=O)N2CCN(Cc3ccc4c(c3)CN(C3CCC(=O)NC3=O)C4=O)CC2)=C(c2ccc(Cl)cc2)C1 (stereo not drawn) [GT-04224, 3-(5-((4-(4′-chloro-5,5-dimethyl-3,4,5,6-tetrahydro-[1,1′-biphenyl]-2-carbonyl)piperazin-1-yl)methyl)-1-oxoisoindolin-2-yl)piperidine-2,6-dione]	430 nM
CC1(C)CCC(C(=O)N2CC3CC(C2)N3Cc2ccc3c(c2)CN(C2CCC(=O)NC2=O)C3=O)=C(c2ccc(F)cc2)C1 (stereo not drawn) [GT-05514, 3-(5-((3-(4′-fluoro-5,5-dimethyl-3,4,5,6-tetrahydro-[1,1′-biphenyl]-2-carbonyl)-3,6-diazabicyclo[3.1.1]heptan-6-yl)methyl)-1-oxoisoindolin-2-yl)piperidine-2,6-dione]	740 nM
O=C1CCC(N2Cc3cc(-c4ccc(CN5CCN(C(=O)c6ccccc6-c6ccc(Cl)cc6)CC5)cc4)ccc3C2=O)C(=O)N1 (stereo not drawn) [GT-05874, 3-(5-(4-((4-(4′-chloro-[1,1′-biphenyl]-2-carbonyl)piperazin-1-yl)methyl)phenyl)-1-oxoisoindolin-2-yl)piperidine-2,6-dione]	440 nM
O=C1CCC(N2Cc3cc(NC4CN(C(=O)c5ccccc5-c5ccc(Cl)cc5)C4)ccc3C2=O)C(=O)N1 (stereo not drawn) [GT-04397, 3-(5-((1-(4′-chloro-[1,1′-biphenyl]-2-carbonyl)azetidin-3-yl)amino)-1-oxoisoindolin-2-yl)piperidine-2,6-dione]	200 nM
CC1(C)CCC(C(=O)N2CCC(Cc3ccc4c(c3)CN(C3CCC(=O)NC3=O)C4=O)CC2)=C(c2ccc(Cl)cc2)C1 (stereo not drawn) [GT-05418, 3-(5-((1-(4′-chloro-5,5-dimethyl-3,4,5,6-tetrahydro-[1,1′-biphenyl]-2-carbonyl)piperidin-4-yl)methyl)-1-oxoisoindolin-2-yl)piperidine-2,6-dione]	540 nM
CC1(C)CCC(CN2C[C@H]3C[C@@H]2CN3Cc2ccc3c(c2)CN(C2CCC(=O)NC2=O)C3=O)=C(c2ccc(Cl)cc2)C1 (stereo partly drawn) [GT-03887, 3-(5-(((1R,4R)-5-((4′-chloro-5,5-dimethyl-3,4,5,6-tetrahydro-[1,1′-biphenyl]-2-yl)methyl)-2,5-diazabicyclo[2.2.1]heptan-2-yl)methyl)-1-oxoisoindolin-2-yl)piperidine-2,6-dione]	190 nM
O=C1CCC(N2Cc3c(CN4CCC(Nc5ccccc5-c5ccc(Cl)cc5)CC4)cccc3C2=O)C(=O)N1 (stereo not drawn) [GT-04947, 3-(4-((4-((4′-chloro-[1,1′-biphenyl]-2-yl)amino)piperidin-1-yl)methyl)-1-oxoisoindolin-2-yl)piperidine-2,6-dione]	390 nM
O=C1CCC(N2Cc3cc(N4C5CCC4CN(C(=O)c4ccccc4-c4ccc(Cl)cc4)C5)ccc3C2=O)C(=O)N1 (stereo not drawn) [GT-05875, 3-(5-(3-(4′-chloro-[1,1′-biphenyl]-2-carbonyl)-3,8-diazabicyclo[3.2.1]octan-8-yl)-1-oxoisoindolin-2-yl)piperidine-2,6-dione]	510 nM
CC1(C)CCC(CN2C3CC2CN(C(=O)c2ccc4c(c2)CN(C2CCC(=O)NC2=O)C4=O)C3)=C(c2ccc(F)cc2)C1 (stereo not drawn) [GT-05671, 3-(5-(6-((4′-fluoro-5,5-dimethyl-3,4,5,6-tetrahydro-[1,1′-biphenyl]-2-yl)methyl)-3,6-diazabicyclo[3.1.1]heptane-3-carbonyl)-1-oxoisoindolin-2-yl)piperidine-2,6-dione]	300 nM
CC1(C)CCC(CN2CCC(Nc3ccc4c(c3)CN(C3CCC(=O)NC3=O)C4=O)CC2)=C(c2ccc(Cl)cc2)C1 (stereo not drawn) [GT-05782, 3-(5-((1-((4′-chloro-5,5-dimethyl-3,4,5,6-tetrahydro-[1,1′-biphenyl]-2-yl)methyl)piperidin-4-yl)amino)-1-oxoisoindolin-2-yl)piperidine-2,6-dione]	1760 nM
CC1(C)CCC(CN2C3CC2CN(Cc2ccc4c(c2)CN(C2CCC(=O)NC2=O)C4=O)C3)=C(c2ccc(Cl)cc2)C1 (stereo not drawn) [GT-03995, 3-(5-((6-((4′-chloro-5,5-dimethyl-3,4,5,6-tetrahydro-[1,1′-biphenyl]-2-yl)methyl)-3,6-diazabicyclo[3.1.1]heptan-3-yl)methyl)-1-oxoisoindolin-2-yl)piperidine-2,6-dione]	630 nM
CC1(C)CCC(C(=O)N2CC3CCC(C2)N3C(=O)c2ccc3c(c2)CN(C2CCC(=O)NC2=O)C3=O)=C(c2ccc(Cl)cc2)C1 (stereo not drawn) [GT-05539, 3-(5-(3-(4′-chloro-5,5-dimethyl-3,4,5,6-tetrahydro-[1,1′-biphenyl]-2-carbonyl)-3,8-diazabicyclo[3.2.1]octane-8-carbonyl)-1-oxoisoindolin-2-yl)piperidine-2,6-dione]	1280 nM
O=C1CCC(N2Cc3cc(NC4CCN(Cc5ccccc5-c5ccc(Cl)cc5)CC4)ccc3C2=O)C(=O)N1 (stereo not drawn) [GT-03877, 3-(5-((1-((4′-chloro-[1,1′-biphenyl]-2-yl)methyl)piperidin-4-yl)amino)-1-oxoisoindolin-2-yl)piperidine-2,6-dione]	1400 nM
O=C1CCC(N2Cc3cc(CN4CCN(C(=O)c5cnc(-c6ccccc6)cn5)CC4)ccc3C2=O)C(=O)N1 (stereo not drawn) [GT-05635, 3-(1-oxo-5-((4-(5-phenylpyrazine-2-carbonyl)piperazin-1-yl)methyl)isoindolin-2-yl)piperidine-2,6-dione]	1000 nM
